Measurements published in publication PMC6934184, “Selective DNA-PKcs inhibition extends the therapeutic index of localized radiotherapy and chemotherapy” (The Journal of Clinical Investigation, 2019).

Target: T1, ULK3 (Homo sapiens, UniProt Q6PHR2)
T1 construct: purchased Thermo Fisher Scientific (Life Technologies) SelectScreen
Assay: SelectScreen LanthaScreen
Format: binding
Settings: 1 µM
In short: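 Percent values come from Thermo SelectScreen profiling of NU5455, combining activity and binding assays. CSF1R was run in Z'LYTE format at Km app ATP, and CAMK1 in Adapta format with ATP listed at 10.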

T1 sequence (Q6PHR2 whole entry): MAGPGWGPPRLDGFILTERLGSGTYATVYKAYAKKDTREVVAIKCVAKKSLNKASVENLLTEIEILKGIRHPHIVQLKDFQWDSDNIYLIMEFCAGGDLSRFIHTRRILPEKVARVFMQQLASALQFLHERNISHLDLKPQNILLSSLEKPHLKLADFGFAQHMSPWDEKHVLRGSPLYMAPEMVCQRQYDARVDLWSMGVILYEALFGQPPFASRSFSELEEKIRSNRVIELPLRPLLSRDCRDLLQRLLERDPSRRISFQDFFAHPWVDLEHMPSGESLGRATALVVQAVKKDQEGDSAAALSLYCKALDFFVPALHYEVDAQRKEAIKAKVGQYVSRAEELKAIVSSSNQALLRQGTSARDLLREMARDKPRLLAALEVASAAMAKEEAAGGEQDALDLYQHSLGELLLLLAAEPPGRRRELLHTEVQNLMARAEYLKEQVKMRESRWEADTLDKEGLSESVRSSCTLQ

CN(C(=O)CN1CCOCC1)c1ccc2sc3c(-c4cccc5c(=O)cc(N6CC7CCC(C6)O7)oc45)cccc3c2c1 [NU5455]
% displacement: 4.5%
